Assay results: patent US20210032291A1, “Compstatin Analogs With Improved Pharmacokinetic Properties” (The Trustees of the University of Pennsylvania, priority 2011, published 2021)
Converted amounts (≈) assume the structure as drawn. Bridge positions count the residues as written; N and C are the ends. Square brackets hold non-standard residues; d marks the D form. Peptide text beside a SMILES is read from it. Trp(1-Me) = Cn1cc(C[C@H](N)C(=O)O)c2ccccc21; NMeI = CC[C@H](C)[C@H](NC)C(=O)O; Sar = CNCC(=O)O

Key:
C3b = biological target: T1, C3b (Homo sapiens, UniProt P01024); assay: SPR kinetic analysis of binding to immobilized C3b (Biacore, single cycle kinetics); details: for ka: association rate / Kd / koff: Table 1, N-terminal analogs; for Kd: read-out: KD: binding constant from SPR; for koff: read-out: kd: dissociation rate
T1 construct: Biotinylated C3b was captured site-specifically on a streptavidin chip
Description: SPR analysis. The interaction of the compstatin analogs with C3b was characterized using a Biacore 3000 instrument (GE Healthcare, Corp., Piscataway, N.J.). The running buffer was PBS, pH 7.4 (10 mM sodium phosphate, 150 mM NaCl) with 0.005% Tween-20. Biotinylated C3b was captured site-specifically on a streptavidin chip at about 3000 and 5000 RU density; two untreated flow cells were used as reference surface. For kinetic analysis, sets of five increasing concentrations of a particular compound were injected over the chip surface one after the other in a single cycle. […] Processed biosensor data were globally fitted to a 1:1 Langmuir binding model (kindly provided by GE Helthcare), and the equilibrium dissociation constant (KD) was calculated from the equation KD=kd/ka. Each assay was performed at least twice.

[1] = system: classical pathway of complement; assay: ELISA inhibition of classical pathway complement activation; format: biochemical; details: read-out: IC50, peptide concentration to reach 50% inhibition of classical pathway complement activation; Table 1
Description: Inhibition of complement activation. The ability of the compstatin analogs to inhibit the activation of the classical pathway of complement was assessed by ELISA as described elsewhere (Katragadda et al., 2006, supra; Mallik et al., 2005, supra). The percent inhibition was plotted against the peptide concentration, and the resulting data set was fitted to the logistic dose-response function using Origin 8.0 software. IC50 values were obtained from the fitted parameters that produced the lowest χ2 value. Each analog was assayed at least three times.

[2] = Solubility in WFI and DPBS; UPLC C18 retention time as hydrophobicity; details: for solubility at 5 min: Dulbecco's phosphate buffered saline, pH 7.4
Description: Approximately 5 mg of each peptide (acetate form) was weighed out into separate LoBind Eppendorf tubes and 50 μL water for injection (WFI) was added to each tube. Each sample was centrifuged at 13000 rpm for 2 min and diluted for measuring the optical density (OD) at 280 nm using a NanoDrop 2000 spectrophotometer (ThermoScientific, Wilmington, Del.). Each concentrated sample was diluted 1:20 into Dulbecco's phosphate buffered saline (DPBS, without potassium and calcium; Invitrogen, Carlsbad, Calif.). The samples were monitored for precipitation, and each sample was vortexed for 5 min and centrifuged at 13000 rpm for 2 min. The OD of each DPBS supernatant was measured to determine peptide concentration at saturation.
In addition, the ultra performance liquid chromatography (UPLC) retention time of these peptides on a C18 column was measured to reflect their apparent relative hydrophobicity (Table 3).

T1 sequence (P01024 23-667 limits assumed): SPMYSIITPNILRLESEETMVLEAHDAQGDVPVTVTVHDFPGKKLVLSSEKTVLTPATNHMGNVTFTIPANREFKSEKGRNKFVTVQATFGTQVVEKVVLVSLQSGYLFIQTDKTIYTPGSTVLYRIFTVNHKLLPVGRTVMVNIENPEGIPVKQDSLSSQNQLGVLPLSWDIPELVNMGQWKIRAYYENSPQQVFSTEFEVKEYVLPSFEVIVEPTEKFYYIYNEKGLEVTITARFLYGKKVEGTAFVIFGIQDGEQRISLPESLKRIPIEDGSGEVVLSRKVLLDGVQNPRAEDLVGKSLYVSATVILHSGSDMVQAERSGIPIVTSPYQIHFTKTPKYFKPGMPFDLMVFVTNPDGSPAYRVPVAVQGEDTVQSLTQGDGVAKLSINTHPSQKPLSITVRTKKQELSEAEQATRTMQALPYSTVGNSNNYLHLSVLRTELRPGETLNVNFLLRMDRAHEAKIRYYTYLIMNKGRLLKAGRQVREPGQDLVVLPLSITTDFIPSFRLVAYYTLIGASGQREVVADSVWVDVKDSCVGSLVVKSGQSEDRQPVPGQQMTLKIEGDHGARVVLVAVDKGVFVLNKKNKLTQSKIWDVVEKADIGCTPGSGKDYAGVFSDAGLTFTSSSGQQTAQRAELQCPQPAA
T1 sequence (P01024 749-1663 partner limits assumed): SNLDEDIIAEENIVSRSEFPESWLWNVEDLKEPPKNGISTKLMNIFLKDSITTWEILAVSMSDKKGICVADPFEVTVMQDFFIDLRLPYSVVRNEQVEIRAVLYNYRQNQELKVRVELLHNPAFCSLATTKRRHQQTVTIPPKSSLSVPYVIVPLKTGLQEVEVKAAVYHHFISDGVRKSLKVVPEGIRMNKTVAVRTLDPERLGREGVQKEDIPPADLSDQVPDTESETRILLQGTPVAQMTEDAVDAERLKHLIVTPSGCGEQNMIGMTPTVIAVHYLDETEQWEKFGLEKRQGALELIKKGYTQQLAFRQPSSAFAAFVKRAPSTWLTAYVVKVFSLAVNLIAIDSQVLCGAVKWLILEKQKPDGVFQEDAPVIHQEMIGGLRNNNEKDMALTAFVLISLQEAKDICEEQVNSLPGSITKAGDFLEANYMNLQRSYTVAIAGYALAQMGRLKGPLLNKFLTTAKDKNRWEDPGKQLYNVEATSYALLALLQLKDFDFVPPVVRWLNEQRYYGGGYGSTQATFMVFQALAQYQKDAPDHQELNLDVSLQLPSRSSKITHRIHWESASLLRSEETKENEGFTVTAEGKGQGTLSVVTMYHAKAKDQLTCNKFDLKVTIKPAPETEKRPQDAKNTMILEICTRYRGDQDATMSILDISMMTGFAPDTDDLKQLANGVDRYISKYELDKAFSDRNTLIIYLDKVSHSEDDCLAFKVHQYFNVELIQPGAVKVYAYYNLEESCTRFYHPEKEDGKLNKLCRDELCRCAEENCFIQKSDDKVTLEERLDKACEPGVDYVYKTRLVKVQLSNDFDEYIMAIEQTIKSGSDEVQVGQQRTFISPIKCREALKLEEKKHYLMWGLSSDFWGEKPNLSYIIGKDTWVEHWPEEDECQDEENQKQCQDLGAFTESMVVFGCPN

SMILES	ka: association rate (C3b)	Kd (C3b) [nM]	koff (C3b) [s⁻¹]	Binding affinity by SPR, in words (C3b; compared with Cp40 (peptide 14))	IC50 [1] [nM]	solubility at 5 min [2] [µg/mL]	solubility ([2]; PBS) [µM]	Hydrophobicity Retention Time ([2]; UPLC analysis on a C18 column) [min]
CC[C@H](C)[C@H](NC)C(=O)N[C@H]1CSSC[C@@H](C(=O)N(C)[C@H](C(N)=O)[C@@H](C)CC)NC(=O)[C@H](CCCNC(=N)N)NC(=O)[C@H](Cc2c[nH]cn2)NC(=O)[C@H](C)NC(=O)CN(C)C(=O)[C@H](Cc2c[nH]c3ccccc23)NC(=O)[C@H](CC(=O)O)NC(=O)[C@H](CCC(N)=O)NC(=O)[C@H](Cc2cn(C)c3ccccc23)NC(=O)[C@H](C(C)C)NC1=O [peptide 1]	1.3 ± 0.3 10^6/Ms	18.6 ± 3.5	0.0248 ± 0.0073	high binding affinity	180 ± 17			
CC[C@H](C)[C@H](NC(=O)[C@@H](N)Cc1ccc(O)cc1)C(=O)N[C@H]1CSSC[C@@H](C(=O)N(C)[C@H](C(N)=O)[C@@H](C)CC)NC(=O)[C@H](CCCNC(=N)N)NC(=O)[C@H](Cc2c[nH]cn2)NC(=O)[C@H](C)NC(=O)CN(C)C(=O)[C@H](Cc2c[nH]c3ccccc23)NC(=O)[C@H](CC(=O)O)NC(=O)[C@H](CCC(N)=O)NC(=O)[C@H](Cc2cn(C)c3ccccc23)NC(=O)[C@H](C(C)C)NC1=O [peptide 4]	2.1 ± 0.3 10^6/Ms				72 ± 10			
CC[C@H](C)[C@H](NC(=O)CN)C(=O)N[C@H]1CSSC[C@@H](C(=O)N(C)[C@H](C(N)=O)[C@@H](C)CC)NC(=O)[C@H](CCCNC(=N)N)NC(=O)[C@H](Cc2c[nH]cn2)NC(=O)[C@H](C)NC(=O)CN(C)C(=O)[C@H](Cc2c[nH]c3ccccc23)NC(=O)[C@H](CC(=O)O)NC(=O)[C@H](CCC(N)=O)NC(=O)[C@H](Cc2cn(C)c3ccccc23)NC(=O)[C@H](C(C)C)NC1=O [peptide 2] (H-GICV[Trp(1-Me)]QDW[Sar]AHRC[NMeI]-NH2; disulfide 3-13)	1.2 ± 0.3 10^6/Ms	2.5 ± 0.5	0.0029 ± 0.0002		113 ± 16			
CC[C@H](C)[C@@H](C(N)=O)N(C)C(=O)[C@@H]1CSSC[C@H](NC(=O)[C@H](Cc2c[nH]c3ccccc23)NC(C)=O)C(=O)N[C@@H](C(C)C)C(=O)N[C@@H](Cc2cn(C)c3ccccc23)C(=O)N[C@@H](CCC(N)=O)C(=O)N[C@@H](CC(=O)O)C(=O)N[C@@H](Cc2c[nH]c3ccccc23)C(=O)N(C)CC(=O)N[C@@H](C)C(=O)N[C@@H](Cc2c[nH]cn2)C(=O)N[C@@H](CCCNC(=N)N)C(=O)N1 [peptide 19] (Ac-WCV[Trp(1-Me)]QDW[Sar]AHRC[NMeI]-NH2; disulfide 2-12)	3.8 ± 0.3 10^6/Ms	0.5	0.0017 ± 0.0003			< 200	< 100	
CC[C@H](C)[C@H](NC(C)=O)C(=O)N[C@H]1CSSC[C@@H](C(=O)N[C@H](C(N)=O)[C@@H](C)O)NC(=O)[C@H](CCCNC(=N)N)NC(=O)[C@H](Cc2c[nH]cn2)NC(=O)[C@H](C)NC(=O)CNC(=O)[C@H](Cc2c[nH]c3ccccc23)NC(=O)[C@H](CC(=O)O)NC(=O)[C@H](CCC(N)=O)NC(=O)[C@H](Cc2cn(C)c3ccccc23)NC(=O)[C@H](C(C)C)NC1=O [4(1MeW), reference compound]					132 ± 7	3500 (≈ 2150 µM)		5.09
CC[C@H](C)[C@H](NC(=O)[C@@H](N)Cc1ccc(OC)cc1)C(=O)N[C@H]1CSSC[C@@H](C(=O)N(C)[C@H](C(N)=O)[C@@H](C)CC)NC(=O)[C@H](CCCNC(=N)N)NC(=O)[C@H](Cc2c[nH]cn2)NC(=O)[C@H](C)NC(=O)CN(C)C(=O)[C@H](Cc2c[nH]c3ccccc23)NC(=O)[C@H](CC(=O)O)NC(=O)[C@H](CCC(N)=O)NC(=O)[C@H](Cc2cn(C)c3ccccc23)NC(=O)[C@H](C(C)C)NC1=O [compound 9]	2.3 ± 0.4 10^6/Ms							
